Key:
Assay type in all cases: in vivo
Set-up in all cases: key: 0 is no effect; 10 is complete control
[1] = tested on: pigweed (Amaranthus retroflexus); assay: Test B pre-/postemergence
Method in brief: (§1)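 Response scores run from 0, meaning no effect, to 10, meaning complete control, assigned by eye relative to controls twelve to sixteen days after spraying. Treatment was both preemergence on planted seed and postemergence on plants at the 1- to 4-leaf stage.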

[2] = tested on: giant foxtail (Setaria faberii); assay: Test B pre-/postemergence
Method in brief: as §1

[3] = tested on: bedstraw (Galium aparine); assay: Test B pre-/postemergence
Method in brief: as §1

[4] = tested on: cocklebur (Xanthium strumarium); assay: Test B pre-/postemergence
Method in brief: as §1

[5] = tested on: momingglory (Ipomoea hederacea); assay: Test B pre-/postemergence
Method in brief: as §1

rape (Brassica napus) = assay: Test B pre-/postemergence
Method in brief: as §1

[6] = tested on: sugar beet (Beta vulgaris); assay: Test B pre-/postemergence
Method in brief: as §1

[7] = tested on: broadleaf signalgrass (Brachiaria decumbens); assay: Test B pre-/postemergence
Method in brief: as §1

[8] = tested on: velvetleaf (Abutilon theophrasti); assay: Test B pre-/postemergence
Method in brief: as §1

corn (Zea mays) = assay: Test B pre-/postemergence
Method in brief: as §1

[9] = tested on: wheat (Triticum aestivum); assay: Test B pre-/postemergence
Method in brief: as §1

[10] = tested on: duck salad (Heteranthera limosa); assay: Test B flood test; settings: for Plant response rating, Ducksalad: Postemergence (flood test species)
Method in brief: (§2)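 Each value is a visual injury score relative to controls, with 10 meaning complete control and 0 no effect. Evaluation took place twelve to sixteen days after the 2-leaf-stage plants were treated and kept in the greenhouse.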

rice (Oryza sativa) = assay: Test B flood test; settings: for Plant response rating, Rice: Postemergence (flood test species)
Method in brief: as §2

[11] = tested on: bamyardgrass (Echinochloa crus-galli); assay: Test B flood test; settings: for Plant response rating, Barnyardgrass: Postemergence (flood test species)
Method in brief: as §2

[12] = tested on: smallflower flatsedge (Cyperus difformis); assay: Test B flood test; settings: for Plant response rating, S. Flatsedge: Postemergence (flood test species)
Method in brief: as §2

[13] = Preemergence, Rate 62 g/ha, scale of 0 to 10
[14] = Rate 62 g/ha, Postemergence (flood test)
[15] = Rate 125 g/ha, Postemergence section (flood test species)

Cc1cnc(-c2ccc(C(F)(F)F)cc2)nc1Cn1ccc(C#N)n1 [Compound 53]
Plant response rating, Redroot pigweed [1, 13]: 0 | Redroot pigweed plant response rating ([1]; Rate 62 g/ha, Postemergence): 2 | Redroot pigweed plant response rating ([1]; Rate 125 g/ha, Postemergence): 6 | Plant response rating, Redroot pigweed ([1]; Rate 125 g/ha, Preemergence): 2 | Plant response rating, Redroot pigweed ([1]; Rate 250 g/ha, Postemergence): 7 | Plant response rating, Redroot pigweed ([1]; Rate 250 g/ha, Preemergence): 7 | Plant response rating, Redroot pigweed ([1]; Rate 500 g/ha, Postemergence): 7 | Plant response rating, Redroot pigweed ([1]; Rate 500 g/ha, Preemergence): 8 | Plant response rating, Giant foxtail [2, 13]: 1 | Giant foxtail plant response rating ([2]; Rate 62 g/ha, Postemergence): 1 | Giant foxtail plant response rating ([2]; Rate 125 g/ha, Postemergence): 1 | Plant response rating, Giant foxtail ([2]; Rate 125 g/ha, Preemergence): 5 | Plant response rating, Giant foxtail ([2]; Rate 250 g/ha, Postemergence): 1 | Plant response rating, Giant foxtail ([2]; Rate 250 g/ha, Preemergence): 6 | Plant response rating, Giant foxtail ([2]; Rate 500 g/ha, Postemergence): 2 | Plant response rating, Giant foxtail ([2]; Rate 500 g/ha, Preemergence): 6 | Plant response rating, Bedstraw [3, 13]: 1 | Bedstraw plant response rating ([3]; Rate 62 g/ha, Postemergence): 5 | Bedstraw plant response rating ([3]; Rate 125 g/ha, Postemergence): 8 | Plant response rating, Bedstraw ([3]; Rate 125 g/ha, Preemergence): 3 | Plant response rating, Bedstraw ([3]; Rate 250 g/ha, Postemergence): 10 | Plant response rating, Bedstraw ([3]; Rate 250 g/ha, Preemergence): 7 | Plant response rating, Bedstraw ([3]; Rate 500 g/ha, Postemergence): 10 | Plant response rating, Bedstraw ([3]; Rate 500 g/ha, Preemergence): 8 | Plant response rating, Cocklebur [4, 13]: 0 | Cocklebur plant response rating ([4]; Rate 62 g/ha, Postemergence): 5 | Cocklebur plant response rating ([4]; Rate 125 g/ha, Postemergence): 5 | Plant response rating, Cocklebur ([4]; Rate 125 g/ha, Preemergence): 0 | Plant response rating, Cocklebur ([4]; Rate 250 g/ha, Postemergence): 6 | Plant response rating, Cocklebur ([4]; Rate 250 g/ha, Preemergence): 0 | Plant response rating, Cocklebur ([4]; Rate 500 g/ha, Postemergence): 6 | Plant response rating, Cocklebur ([4]; Rate 500 g/ha, Preemergence): 1 | Plant response rating, Morningglory [5, 13]: 1 | Morningglory plant response rating ([5]; Rate 125 g/ha, Postemergence): 3 | Plant response rating, Morningglory ([5]; Rate 125 g/ha, Preemergence): 2 | Plant response rating, Morningglory ([5]; Rate 250 g/ha, Preemergence): 2 | Plant response rating, Morningglory ([5]; Rate 500 g/ha, Postemergence): 3 | Plant response rating, Morningglory ([5]; Rate 500 g/ha, Preemergence): 5 | Plant response rating, Rape (rape (Brassica napus); [13]): 2 | Rape plant response rating (rape (Brassica napus); Rate 62 g/ha, Postemergence): 8 | Rape plant response rating (rape (Brassica napus); Rate 125 g/ha, Postemergence): 8 | Plant response rating, Rape (rape (Brassica napus); Rate 125 g/ha, Preemergence): 5 | Plant response rating, Rape (rape (Brassica napus); Rate 250 g/ha, Postemergence): 8 | Plant response rating, Rape (rape (Brassica napus); Rate 250 g/ha, Preemergence): 7 | Plant response rating, Rape (rape (Brassica napus); Rate 500 g/ha, Postemergence): 9 | Plant response rating, Rape (rape (Brassica napus); Rate 500 g/ha, Preemergence): 7 | Plant response rating, Sugarbeets [6, 13]: 4 | Sugarbeets plant response rating ([6]; Rate 62 g/ha, Postemergence): 9 | Sugarbeets plant response rating ([6]; Rate 125 g/ha, Postemergence): 10 | Plant response rating, Sugarbeets ([6]; Rate 125 g/ha, Preemergence): 8 | Plant response rating, Sugarbeets ([6]; Rate 250 g/ha, Postemergence): 10 | Plant response rating, Sugarbeets ([6]; Rate 250 g/ha, Preemergence): 9 | Plant response rating, Sugarbeets ([6]; Rate 500 g/ha, Postemergence): 10 | Plant response rating, Sugarbeets ([6]; Rate 500 g/ha, Preemergence): 9 | B. signalgrass plant response rating ([7]; Rate 62 g/ha, Postemergence): 1 | B. signalgrass plant response rating ([7]; Rate 62 g/ha, Preemergence): 0 | B. signalgrass plant response rating ([7]; Rate 125 g/ha, Postemergence): 1 | Plant response rating, B. signalgrass ([7]; Rate 125 g/ha, Preemergence): 1 | Plant response rating, B. signalgrass ([7]; Rate 250 g/ha, Postemergence): 2 | Plant response rating, B. signalgrass ([7]; Rate 250 g/ha, Preemergence): 2 | Plant response rating, B. signalgrass ([7]; Rate 500 g/ha, Postemergence): 2 | Plant response rating, B. signalgrass ([7]; Rate 500 g/ha, Preemergence): 6 | Plant response rating, Velvetleaf [8, 13]: 0 | Velvetleaf plant response rating ([8]; Rate 62 g/ha, Postemergence): 6 | Velvetleaf plant response rating ([8]; Rate 125 g/ha, Postemergence): 6 | Plant response rating, Velvetleaf ([8]; Rate 125 g/ha, Preemergence): 2 | Plant response rating, Velvetleaf ([8]; Rate 250 g/ha, Postemergence): 7 | Plant response rating, Velvetleaf ([8]; Rate 250 g/ha, Preemergence): 4 | Plant response rating, Velvetleaf ([8]; Rate 500 g/ha, Postemergence): 7 | Plant response rating, Velvetleaf ([8]; Rate 500 g/ha, Preemergence): 8 | Plant response rating, Corn (corn (Zea mays); [13]): 0 | Corn plant response rating (corn (Zea mays); Rate 62 g/ha, Postemergence): 1 | Corn plant response rating (corn (Zea mays); Rate 125 g/ha, Postemergence): 1 | Plant response rating, Corn (corn (Zea mays); Rate 125 g/ha, Preemergence): 0 | Plant response rating, Corn (corn (Zea mays); Rate 250 g/ha, Postemergence): 1 | Plant response rating, Corn (corn (Zea mays); Rate 250 g/ha, Preemergence): 0 | Plant response rating, Corn (corn (Zea mays); Rate 500 g/ha, Postemergence): 1 | Plant response rating, Corn (corn (Zea mays); Rate 500 g/ha, Preemergence): 0 | Plant response rating, Wheat [9, 13]: 0 | Wheat plant response rating ([9]; Rate 62 g/ha, Postemergence): 1 | Wheat plant response rating ([9]; Rate 125 g/ha, Postemergence): 1 | Plant response rating, Wheat ([9]; Rate 125 g/ha, Preemergence): 0 | Plant response rating, Wheat ([9]; Rate 250 g/ha, Postemergence): 1 | Plant response rating, Wheat ([9]; Rate 250 g/ha, Preemergence): 0 | Plant response rating, Wheat ([9]; Rate 500 g/ha, Postemergence): 2 | Plant response rating, Wheat ([9]; Rate 500 g/ha, Preemergence): 1 | Ducksalad plant response rating [10, 14]: 0 | Ducksalad plant response rating [10, 15]: 2 | Plant response rating, Ducksalad ([10]; Rate 250 g/ha): 5 | Plant response rating, Ducksalad ([10]; Rate 500 g/ha): 7 | Rice plant response rating (rice (Oryza sativa); [14]): 1 | Rice plant response rating (rice (Oryza sativa); [15]): 1 | Plant response rating, Rice (rice (Oryza sativa); Rate 250 g/ha): 1 | Plant response rating, Rice (rice (Oryza sativa); Rate 500 g/ha): 2 | Barnyardgrass plant response rating [11, 14]: 1 | Barnyardgrass plant response rating [11, 15]: 2 | Plant response rating, Barnyardgrass ([11]; Rate 250 g/ha): 2 | Plant response rating, Barnyardgrass ([11]; Rate 500 g/ha): 2 | S. Flatsedge plant response rating [12, 14]: 5 | S. Flatsedge plant response rating [12, 15]: 8 | Plant response rating, S. Flatsedge ([12]; Rate 250 g/ha): 9 | Plant response rating, S. Flatsedge ([12]; Rate 500 g/ha): 9
